In PMC5428354, “Screening of a natural compound library identifies emodin, a natural compound from Rheum palmatum Linn that inhibits DPP4” (PeerJ, 2017):
Read-outs that look alike come from different tables or passages of the source.

Target: DPP4 (Homo sapiens, UniProt P27487)
Experiment: DPP4 activity assay (DPP4 inhibitor screening assay kit, Cayman);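 further: fluorescence read at excitation 360 nm and emission 460 nm after the enzyme reaction ran 30 min at 37 °C in a 96-well plate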
Assay type: biochemical
Parameters: purchased Cayman Chemical, Ann Arbor, MI, USA
Settings: for remaining activity at 10 µM: 0.5 h
[1] = 10 µM, control mean 100.0, Figure 1A raw data, read-out: DPP4 activity in library screen, Exp 1
[2] = 10 µM, control mean 100.0, Figure 1A raw data, read-out: DPP4 activity in library screen, Exp 2
[3] = 10 µM, control mean 100.0, Figure 1A raw data, read-out: DPP4 activity in library screen, Exp 3
[4] = 10 µM, control mean 100.0, mean of Exp 1-3, read-out: DPP4 activity in library screen, Mean
[5] = 10 µM, control mean 100.0, Figure 1A raw data
[6] = 10 µM, control mean 100.0, mean of Exp 1-3

Sequence of DPP4 (P27487 whole entry): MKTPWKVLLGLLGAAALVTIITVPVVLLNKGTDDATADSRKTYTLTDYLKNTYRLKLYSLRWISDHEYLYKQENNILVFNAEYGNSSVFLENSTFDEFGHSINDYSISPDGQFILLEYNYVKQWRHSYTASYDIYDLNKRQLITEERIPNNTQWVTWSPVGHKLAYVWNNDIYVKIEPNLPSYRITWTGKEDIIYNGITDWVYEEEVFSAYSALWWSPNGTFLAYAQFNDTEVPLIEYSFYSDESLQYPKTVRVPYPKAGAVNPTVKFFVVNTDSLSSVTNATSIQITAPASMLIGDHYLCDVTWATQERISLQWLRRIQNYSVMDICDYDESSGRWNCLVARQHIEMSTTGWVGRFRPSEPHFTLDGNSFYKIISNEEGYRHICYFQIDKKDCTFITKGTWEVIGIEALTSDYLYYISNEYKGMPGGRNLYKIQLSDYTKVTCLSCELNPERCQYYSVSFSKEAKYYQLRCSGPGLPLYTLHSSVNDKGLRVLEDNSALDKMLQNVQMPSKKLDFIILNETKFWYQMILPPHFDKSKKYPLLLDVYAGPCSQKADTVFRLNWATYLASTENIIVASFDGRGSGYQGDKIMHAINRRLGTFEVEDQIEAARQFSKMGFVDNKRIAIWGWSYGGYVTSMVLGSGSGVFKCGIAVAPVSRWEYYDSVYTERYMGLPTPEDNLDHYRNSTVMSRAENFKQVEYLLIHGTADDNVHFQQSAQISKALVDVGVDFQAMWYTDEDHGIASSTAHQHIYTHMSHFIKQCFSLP

Compound	remaining activity at 10 µM [1]	remaining activity at 10 µM [2]	remaining activity at 10 µM [3]	remaining activity at 10 µM [4]	also measured
COc1ccc([C@@]23Oc4cc(OC)cc(OC)c4[C@]2(O)[C@H](O)[C@H](C(=O)N(C)C)[C@H]3c2ccccc2)cc1 [Rocaglamide]	100%	100%	94.9%	98.5%	–
O=c1c(O)c(-c2ccc(O)c(O)c2)oc2cc(O)ccc12 [Fisetin]	72.3%	74%	51.8%	66%	–
Cc1cc2c(C(C)C)c(O)c(O)c(C=O)c2c(O)c1-c1c(C)cc2c(C(C)C)c(O)c(O)c(C=O)c2c1O [Gossypol]	54.6%	59.8%	51.6%	55.3%	–
O=C(O)c1cc(=O)[nH]c(=O)[nH]1 [Orotic acid (6-Carboxyuracil), Orotic acid]	83.5%	88%	95.5%	89%	–
COc1ccc(-c2coc3cc(O)ccc3c2=O)cc1 [Formononetin]	102%	85.5%	108%	98.7%	–
CC(C)(C)[C@]1(O)CC2OC(=O)CC23C(=O)OC2OC(=O)[C@H](O)C231 (some centres unmarked) [Bilobalide]	–	–	–	–	remaining activity at 10 µM (read-out: DPP4 activity in library screen, Exp 1): 97.2%; remaining activity at 10 µM (read-out: DPP4 activity in library screen, Exp 2): 94.5%; remaining activity at 10 µM (read-out: DPP4 activity in library screen, Exp 3): 103%; remaining activity at 10 µM (read-out: DPP4 activity in library screen, Mean): 98.2%
OC[C@H]1O[C@@H](Oc2cc(O)cc(/C=C/c3ccc(O)cc3)c2)[C@H](O)[C@@H](O)[C@@H]1O [Polydatin]	89.6%	81.3%	70%	80.3%	–
Cc1coc2c1C(=O)C(=O)c1c-2ccc2c(C)cccc12 [Tanshinone I]	56.8%	59.3%	58.1%	58.1%	–
xenoclauxin	–	–	–	–	DPP4 activity in library screen, Exp 1 [5]: 105.6; DPP4 activity in library screen, Exp 2 [5]: 107.6; DPP4 activity in library screen, Exp 3 [5]: 132.5; DPP4 activity in library screen, Mean [6]: 115.2
O=c1cc(-c2ccccc2)oc2cc(O)cc(O)c12 [Chrysin]	85.4%	87.6%	71.2%	81.4%	–
CCCCCCCCCCCCCCCC(=O)OC[C@@]1(O)C[C@@]23CC[C@@H]4c5ccoc5CC[C@@]4(C)[C@@H]2CC[C@@H]1C3 [Cafestol palmitate]	–	–	–	–	DPP4 activity in library screen, Exp 1 [5]: 96.3; DPP4 activity in library screen, Exp 2 [5]: 108.3; DPP4 activity in library screen, Exp 3 [5]: 144; DPP4 activity in library screen, Mean [6]: 116.2
CC(=O)c1c(O)c(C)c(O)c2c1OC1=CC(=O)C(C(C)=O)C(=O)C12C (single isomer, unassigned; (+)) [(+)-Usniacin]	–	–	–	–	DPP4 activity in library screen, Exp 1 [5]: 88.7; DPP4 activity in library screen, Exp 2 [5]: 90.4; DPP4 activity in library screen, Exp 3 [5]: 89.7; DPP4 activity in library screen, Mean [6]: 89.6
C=C[C@H]1CN2CC[C@H]1C[C@H]2[C@H](O)c1ccnc2ccccc12 [Cinchonidine]	90.5%	97.4%	97.3%	95.1%	–
COc1ccc2ccc(=O)oc2c1CC=C(C)C [Osthole]	93.1%	95.2%	87.3%	91.9%	–
C=CCc1ccc(O)c(-c2cc(CC=C)ccc2O)c1 [Magnolol]	97.6%	108%	83.9%	96.4%	–
CC[C@H](CC[C@@H](C)[C@H]1CC[C@H]2[C@@H]3CC=C4C[C@@H](O)CC[C@]4(C)[C@H]3CC[C@]12C)C(C)C [beta-sitosterol]	98.6%	92.3%	104%	98.2%	–
C=C1C(=O)O[C@H]2[C@H]1CC/C(C)=C/CC[C@@]1(C)O[C@@H]21 [(-)-Parthenolide]	–	–	–	–	DPP4 activity in library screen, Exp 1 [5]: 73.3; DPP4 activity in library screen, Exp 2 [5]: 84.6; DPP4 activity in library screen, Exp 3 [5]: 113.2; DPP4 activity in library screen, Mean [6]: 90.4
C[C@@H]1O[C@@H](OC[C@H]2O[C@@H](Oc3c(-c4ccc(OCCO)c(OCCO)c4)oc4cc(OCCO)cc(O)c4c3=O)[C@H](O)[C@@H](O)[C@@H]2O)[C@H](O)[C@H](O)[C@H]1O [Troxerutin]	69.8%	62.2%	57.2%	63.1%	–
O=C1C=CC[C@@H]2[C@H]3CCCN4CCC[C@@H](CN12)[C@@H]34 [Sophocarpine]	96.7%	109%	111%	105%	–
C[C@@H]1O[C@@H](OC[C@H]2O[C@@H](Oc3c(-c4ccc(O)c(O)c4)oc4cc(O)cc(O)c4c3=O)[C@H](O)[C@@H](O)[C@@H]2O)[C@H](O)[C@H](O)[C@H]1O [Rutin]	78.7%	73.8%	50.1%	67.5%	–
COc1cc2c(cc1OC)-c1cc3ccc(OC)c(OC)c3c[n+]1CC2 [Palmatine chloride]	–	–	–	–	remaining activity at 10 µM (read-out: DPP4 activity in library screen, Exp 1, 10 µM, control mean 100.0, Figure 1A raw data): 49.5%; remaining activity at 10 µM (read-out: DPP4 activity in library screen, Exp 2, 10 µM, control mean 100.0, Figure 1A raw data): 48.9%; remaining activity at 10 µM (read-out: DPP4 activity in library screen, Exp 3, 10 µM, control mean 100.0, Figure 1A raw data): 43.9%; remaining activity at 10 µM (read-out: DPP4 activity in library screen, Mean, 10 µM, control mean 100.0, mean of Exp 1-3): 47.4%
C[C@H](NCc1ccc(OCc2cccc(F)c2)cc1)C(N)=O [Safinamide]	93.4%	98.3%	118%	103%	–
COc1ccc(C(C)=O)c(O)c1 [Paeonol]	80.3%	92.8%	99.9%	91%	–
Oc1cc2c(cc1O)[C@@H]1c3ccc(O)c(O)c3OC[C@]1(O)C2 [Hematoxylin]	70.1%	72%	84.9%	75.7%	–
C[C@H]1[C@H](OC(=O)CCC(=O)O)O[C@@H]2O[C@@]3(C)CC[C@H]4[C@H](C)CC[C@@H]1[C@@]24OO3 [Artesunate]	95.1%	99%	87%	93.7%	–
O=c1c(O)c(-c2ccc(O)c(O)c2)oc2cc(O)cc(O)c12 [Quercetin]	62.7%	62.1%	72.1%	65.6%	–

More lines, main results first:

remaining activity at 10 µM [1]	remaining activity at 10 µM [2]	remaining activity at 10 µM [3]	remaining activity at 10 µM [4]	Compound	also measured
71.3%	78.6%	71.4%	73.8%	O=c1c2ccccc2nc2n1CCc1c-2[nH]c2ccccc12 [Rutaecarpine]	–
95.4%	94.1%	102%	97.2%	O=c1[nH]cnc2c1ncn2[C@@H]1O[C@H](CO)[C@@H](O)[C@H]1O [Inosine]	–
96.7%	99.3%	98.5%	98.2%	O=c1[nH]cnc2nc[nH]c12 [Hypoxanthine]	–
97.6%	93.8%	93%	94.8%	c1coc(CNc2ncnc3[nH]cnc23)c1 [Kinetin]	–
77.2%	77.5%	77.6%	77.4%	COc1ccc(-c2cc(=O)c3c(O)cc(O)cc3o2)cc1O [Diosmetin]	–
97.1%	97.1%	113%	102%	OC[C@H]1O[C@@H](OCCc2ccc(O)cc2)[C@H](O)[C@@H](O)[C@@H]1O [Salidroside]	–
103%	100%	96.8%	100%	C=C1CC[C@@H]2[C@](C)(CO)[C@H](O)CC[C@@]2(C)[C@@H]1C/C=C1/C(=O)OC[C@H]1O [Andrographolide]	–
103%	92%	88.7%	94.6%	OCc1c[nH]c2ccccc12 [Indole-3-carbinol]	–
104%	106%	91.4%	101%	CC1(C)O[C@H]2CC(=O)OC[C@]23[C@H]2CC[C@@]4(C)[C@H](c5ccoc5)OC(=O)[C@H]5O[C@]54[C@]2(C)C(=O)C[C@@H]13 [Limonin]	–
82.6%	90.9%	116%	96.6%	COc1cc(C(C)=O)ccc1O [Apocynin]	–
115%	108%	121%	115%	O=C(O)Cc1c[nH]c2ccccc12 [Indole-3-acetic acid]	–
50.8%	56.6%	69.7%	59%	Cc1coc2c1C(=O)C(=O)c1c-2ccc2c1CCCC2(C)C [Tanshinone IIA]	–
